{"source": "ChEMBL document CHEMBL1201862", "about": "“PubChem BioAssay data set” (2004)", "experiment_in_all_cases": "NCI anticancer screen, dose series, 48 h", "key": {"KM12": {"system": "KM12"}, "SN12C": {"system": "SN12C"}, "IGROV-1": {"system": "IGROV-1"}, "OVCAR-3": {"system": "OVCAR-3"}, "UO-31": {"system": "UO-31"}, "SK-OV-3": {"system": "SK-OV-3"}, "EKVX": {"system": "EKVX"}, "HCC 2998": {"system": "HCC 2998"}, "MCF7": {"system": "MCF7"}, "MDA-N": {"system": "MDA-N"}, "SK-MEL-28": {"system": "SK-MEL-28"}, "UACC-62": {"system": "UACC-62"}, "NCI-H522": {"system": "NCI-H522"}, "M14": {"system": "M14"}, "MDA-MB-435": {"system": "MDA-MB-435"}, "COLO 205": {"system": "COLO 205"}, "786-0": {"system": "786-0"}, "Malme-3M": {"system": "Malme-3M"}, "HOP-92": {"system": "HOP-92"}, "Hs-578T": {"system": "Hs-578T"}, "OVCAR-5": {"system": "OVCAR-5"}, "BT-549": {"system": "BT-549"}, "OVCAR-8": {"system": "OVCAR-8"}, "HCT-116": {"system": "HCT-116"}, "A498": {"system": "A498"}, "SW-620": {"system": "SW-620"}, "SF-268": {"system": "SF-268"}, "MOLT-4": {"system": "MOLT-4"}, "NCI-H460": {"system": "NCI-H460"}, "SK-MEL-5": {"system": "SK-MEL-5"}, "CAKI-1": {"system": "CAKI-1"}, "NCI-H23": {"system": "NCI-H23"}, "SR": {"system": "SR"}, "ACHN": {"system": "ACHN"}, "HCT-15": {"system": "HCT-15"}, "TK-10": {"system": "TK-10"}, "SF-295": {"system": "SF-295"}, "RXF 393": {"system": "RXF 393"}, "SNB-75": {"system": "SNB-75"}, "PC-3": {"system": "PC-3"}, "SNB-19": {"system": "SNB-19"}, "UACC-257": {"system": "UACC-257"}, "HL-60": {"system": "HL-60"}, "DU-145": {"system": "DU-145"}, "HOP-62": {"system": "HOP-62"}, "RPMI-8226": {"system": "RPMI-8226"}, "HT-29": {"system": "HT-29"}, "A549": {"system": "A549"}, "U-251": {"system": "U-251"}, "SF-539": {"system": "SF-539"}, "OVCAR-4": {"system": "OVCAR-4"}}, "note": "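Exposure lasted 48 hours, with cells grown in 96-well plates and compounds tested at five concentrations. At the GI50, growth is halved.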 Calls of active or inactive are those of the source. No stated cut-off is given here; in the data, active = GI50 up to about 1.1 µM and inactive = higher."}
{"smiles": "CC(C)=CCC/C(C)=C/COC(C)(C)C1=CCC(C)CC1.CC(C)=CCC/C(C)=C/COC1CC(C)CCC1=C(C)C", "note": "(stereo unspecified)", "values": [{"measurement": "GI50", "setting": "KM12", "result": "> 100 µM (inactive)"}, {"measurement": "GI50", "setting": "SN12C", "result": "> 100 µM (inactive)"}, {"measurement": "GI50", "setting": "IGROV-1", "result": "> 100 µM (inactive)"}, {"measurement": "GI50", "setting": "OVCAR-3", "result": "> 100 µM (inactive)"}, {"measurement": "GI50", "setting": "UO-31", "result": "> 100 µM (inactive)"}, {"measurement": "GI50", "setting": "SK-OV-3", "result": "> 100 µM (inactive)"}, {"measurement": "GI50", "setting": "EKVX", "result": "> 100 µM (inactive)"}, {"measurement": "GI50", "setting": "HCC 2998", "result": "> 100 µM (inactive)"}, {"measurement": "GI50", "setting": "MCF7", "result": "65.3 µM (inactive)"}, {"measurement": "GI50", "setting": "MDA-N", "result": "> 100 µM (inactive)"}, {"measurement": "GI50", "setting": "SK-MEL-28", "result": "> 100 µM (inactive)"}, {"measurement": "GI50", "setting": "UACC-62", "result": "> 100 µM (inactive)"}, {"measurement": "GI50", "setting": "NCI-H522", "result": "> 100 µM (inactive)"}, {"measurement": "GI50", "setting": "M14", "result": "> 100 µM (inactive)"}, {"measurement": "GI50", "setting": "MDA-MB-435", "result": "> 100 µM (inactive)"}, {"measurement": "GI50", "setting": "COLO 205", "result": "> 100 µM (inactive)"}, {"measurement": "GI50", "setting": "786-0", "result": "> 100 µM (inactive)"}, {"measurement": "GI50", "setting": "Malme-3M", "result": "> 100 µM (inactive)"}, {"measurement": "GI50", "setting": "HOP-92", "result": "> 100 µM (inactive)"}, {"measurement": "GI50", "setting": "Hs-578T", "result": "> 100 µM (inactive)"}, {"measurement": "GI50", "setting": "OVCAR-5", "result": "> 100 µM (inactive)"}, {"measurement": "GI50", "setting": "BT-549", "result": "> 100 µM (inactive)"}, {"measurement": "GI50", "setting": "OVCAR-8", "result": "> 100 µM (inactive)"}, {"measurement": "GI50", "setting": "HCT-116", "result": "> 100 µM (inactive)"}, {"measurement": "GI50", "setting": "A498", "result": "> 100 µM (inactive)"}, {"measurement": "GI50", "setting": "SW-620", "result": "> 100 µM (inactive)"}, {"measurement": "GI50", "setting": "SF-268", "result": "> 100 µM (inactive)"}, {"measurement": "GI50", "setting": "MOLT-4", "result": "18.2 µM (inactive)"}, {"measurement": "GI50", "setting": "NCI-H460", "result": "> 100 µM (inactive)"}, {"measurement": "GI50", "setting": "SK-MEL-5", "result": "> 100 µM (inactive)"}, {"measurement": "GI50", "setting": "CAKI-1", "result": "> 100 µM (inactive)"}, {"measurement": "GI50", "setting": "NCI-H23", "result": "> 100 µM (inactive)"}, {"measurement": "GI50", "setting": "SR", "result": "18.9 µM (inactive)"}, {"measurement": "GI50", "setting": "ACHN", "result": "> 100 µM (inactive)"}, {"measurement": "GI50", "setting": "HCT-15", "result": "> 100", "unit": "µM"}, {"measurement": "GI50", "setting": "TK-10", "result": "> 100 µM (inactive)"}, {"measurement": "GI50", "setting": "SF-295", "result": "> 100 µM (inactive)"}, {"measurement": "GI50", "setting": "RXF 393", "result": "> 100 µM (inactive)"}, {"measurement": "GI50", "setting": "SNB-75", "result": "> 100 µM (inactive)"}, {"measurement": "GI50", "setting": "PC-3", "result": "> 100 µM (inactive)"}, {"measurement": "GI50", "setting": "SNB-19", "result": "> 100 µM (inactive)"}, {"measurement": "GI50", "setting": "UACC-257", "result": "63.8 µM (inactive)"}, {"measurement": "GI50", "setting": "HL-60", "result": "22 µM (inactive)"}, {"measurement": "GI50", "setting": "DU-145", "result": "> 100 µM (inactive)"}, {"measurement": "GI50", "setting": "HOP-62", "result": "> 100 µM (inactive)"}, {"measurement": "GI50", "setting": "RPMI-8226", "result": "36.7 µM (inactive)"}, {"measurement": "GI50", "setting": "HT-29", "result": "> 100 µM (inactive)"}, {"measurement": "GI50", "setting": "A549", "result": "> 100 µM (inactive)"}, {"measurement": "GI50", "setting": "U-251", "result": "> 100 µM (inactive)"}, {"measurement": "GI50", "setting": "SF-539", "result": "6.07 µM (inactive)"}, {"measurement": "GI50", "setting": "OVCAR-4", "result": "> 100 µM (inactive)"}]}
